Source: ChEMBL document CHEMBL1201862, “PubChem BioAssay data set” (2004)
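Compound exposure: 48 hours, 5 concentrations, 96-well plates. The concentration for 50% growth inhibition is given as GI50.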 Calls of active or inactive are those of the source. Cut-off read from the data, not from the text of the source: active = GI50 up to about 1.1 µM and inactive = higher.

What was measured:
Assay in all cases: NCI tumour cell line growth inhibition, 48 h
[1] = system: 786-0
[2] = system: COLO 205
[3] = system: HCT-15
[4] = system: HL-60
[5] = system: HT-29
[6] = system: KM12
[7] = system: NCI-H226
[8] = system: NCI-H23
[9] = system: NCI-H460
[10] = system: NCI-H522
[11] = system: SF-295
[12] = system: SNB-19
[13] = system: TK-10
[14] = system: UO-31
[15] = system: CAKI-1
[16] = system: SNB-75
[17] = system: HOP-92
[18] = system: SK-MEL-5

Row | SMILES | GI50 [1] | GI50 [2] | GI50 [3] [µM] | GI50 [4] | GI50 [5] | GI50 [6] | GI50 [7] | GI50 [8] | GI50 [9] | GI50 [10] | GI50 [11] | GI50 [12] | GI50 [13] | GI50 [14] | GI50 [15] | GI50 [16] | GI50 [17] | GI50 [18]
1 | CN(C)c1ccc(-c2cc(O)c3ccccc3n2)cc1 | > 100 µM (inactive) | > 100 µM (inactive) | > 100 | > 100 µM (inactive) | > 100 µM (inactive) | > 100 µM (inactive) | > 100 µM (inactive) | > 100 µM (inactive) | > 100 µM (inactive) | > 100 µM (inactive) | > 100 µM (inactive) | > 100 µM (inactive) | > 100 µM (inactive) | > 100 µM (inactive) | – | – | – | –
2 | CCNC(=O)N(CC)CN(CC)C(=O)NCC | – | > 100 µM (inactive) | > 100 | > 100 µM (inactive) | > 100 µM (inactive) | > 100 µM (inactive) | > 100 µM (inactive) | – | – | > 100 µM (inactive) | > 100 µM (inactive) | > 100 µM (inactive) | – | > 100 µM (inactive) | > 100 µM (inactive) | > 100 µM (inactive) | – | –
3 | CN1CCc2c1nc(-c1cccnc1)c1c2N(C)CC1 | > 100 µM (inactive) | > 100 µM (inactive) | > 100 | > 100 µM (inactive) | 95.3 µM (inactive) | > 100 µM (inactive) | – | > 100 µM (inactive) | > 100 µM (inactive) | – | > 100 µM (inactive) | > 100 µM (inactive) | > 100 µM (inactive) | 48.8 µM (inactive) | > 100 µM (inactive) | > 100 µM (inactive) | 88.5 µM (inactive) | > 100 µM (inactive)
4 | Cc1ccccc1C1=C(C(=O)Nc2ccc(Cl)c(Cl)c2)NC(=S)NC1N (configuration not stated) | > 100 µM (inactive) | > 100 µM (inactive) | > 100 | – | > 100 µM (inactive) | > 100 µM (inactive) | – | > 100 µM (inactive) | > 100 µM (inactive) | > 100 µM (inactive) | – | > 100 µM (inactive) | > 100 µM (inactive) | > 100 µM (inactive) | > 100 µM (inactive) | > 100 µM (inactive) | – | > 100 µM (inactive)
5 | Cc1ccccc1C1=[N+]([O-])c2ccccc2C1=O | 17.4 µM (inactive) | 15.7 µM (inactive) | 14.4 | 10.3 µM (inactive) | 14.5 µM (inactive) | 13.2 µM (inactive) | 16.3 µM (inactive) | 20.3 µM (inactive) | 19.7 µM (inactive) | 15.2 µM (inactive) | 23.7 µM (inactive) | 46.1 µM (inactive) | 18.3 µM (inactive) | 19.1 µM (inactive) | – | 20.2 µM (inactive) | 49.4 µM (inactive) | 16.8 µM (inactive)
6 | CC1=C(C(=O)NNS(=O)(=O)c2ccc(C)cc2)CC(C(=O)NNS(=O)(=O)c2ccc(C)cc2)=C(C)N1 | > 100 µM (inactive) | > 100 µM (inactive) | > 100 | 55.1 µM (inactive) | > 100 µM (inactive) | > 100 µM (inactive) | > 100 µM (inactive) | > 100 µM (inactive) | > 100 µM (inactive) | 66.5 µM (inactive) | > 100 µM (inactive) | > 100 µM (inactive) | 56.4 µM (inactive) | > 100 µM (inactive) | 94.2 µM (inactive) | – | – | –
7 | C/C=C1\CN2CCc3c([nH]c4ccccc34)C2CC1CCO (configuration not stated) | > 100 µM (inactive) | > 100 µM (inactive) | > 100 | > 100 µM (inactive) | > 100 µM (inactive) | > 100 µM (inactive) | > 100 µM (inactive) | > 100 µM (inactive) | > 100 µM (inactive) | > 100 µM (inactive) | > 100 µM (inactive) | > 100 µM (inactive) | > 100 µM (inactive) | 74.8 µM (inactive) | – | 28.8 µM (inactive) | 48 µM (inactive) | > 100 µM (inactive)
8 | CC(=O)OCC1OC(OC(C)=O)C(NC#N)C(OC(C)=O)C1OC(C)=O (configuration not stated) | > 100 µM (inactive) | > 100 µM (inactive) | > 100 | > 100 µM (inactive) | > 100 µM (inactive) | > 100 µM (inactive) | – | > 100 µM (inactive) | 68.1 µM (inactive) | > 100 µM (inactive) | 80.4 µM (inactive) | > 100 µM (inactive) | > 100 µM (inactive) | 36.1 µM (inactive) | > 100 µM (inactive) | > 100 µM (inactive) | > 100 µM (inactive) | 73.1 µM (inactive)
9 | Cc1ccc(NC(=O)C(=O)C2C(=O)N(c3ccccc3)N=C2N)cc1C (configuration not stated) | > 100 µM (inactive) | > 100 µM (inactive) | > 100 | > 100 µM (inactive) | > 100 µM (inactive) | > 100 µM (inactive) | > 100 µM (inactive) | > 100 µM (inactive) | – | > 100 µM (inactive) | > 100 µM (inactive) | > 100 µM (inactive) | > 100 µM (inactive) | > 100 µM (inactive) | > 100 µM (inactive) | > 100 µM (inactive) | > 100 µM (inactive) | > 100 µM (inactive)
10 | COc1ccc(C2C3=C(COC3=O)Oc3cc4c(cc32)OCO4)cc1 (configuration not stated) | 27.2 µM (inactive) | 13 µM (inactive) | 6.27 | 3.97 µM (inactive) | 3.81 µM (inactive) | – | – | 20.1 µM (inactive) | 10.8 µM (inactive) | – | 5.15 µM (inactive) | 61.4 µM (inactive) | 29.3 µM (inactive) | 16.7 µM (inactive) | 7.53 µM (inactive) | 8.3 µM (inactive) | 14.9 µM (inactive) | 11.7 µM (inactive)
11 | Cc1oc2c(C)c(O)c3c(c2c1C1(C)OCCO1)C(=O)C=C(Cl)C3=O | > 100 µM (inactive) | > 100 µM (inactive) | > 100 | > 100 µM (inactive) | > 100 µM (inactive) | > 100 µM (inactive) | > 100 µM (inactive) | > 100 µM (inactive) | > 100 µM (inactive) | > 100 µM (inactive) | > 100 µM (inactive) | > 100 µM (inactive) | > 100 µM (inactive) | > 100 µM (inactive) | > 100 µM (inactive) | – | > 100 µM (inactive) | > 100 µM (inactive)
12 | O=c1c(Cc2ccccc2)c(O)cc2n1CCC2 | > 100 µM (inactive) | > 100 µM (inactive) | > 100 | – | > 100 µM (inactive) | > 100 µM (inactive) | > 100 µM (inactive) | > 100 µM (inactive) | > 100 µM (inactive) | > 100 µM (inactive) | > 100 µM (inactive) | > 100 µM (inactive) | > 100 µM (inactive) | > 100 µM (inactive) | > 100 µM (inactive) | > 100 µM (inactive) | > 100 µM (inactive) | > 100 µM (inactive)
13 | Cc1cc(N(CCC#N)CCC#N)ccc1/N=N/c1cccc(Cl)c1 | > 100 µM (inactive) | > 100 µM (inactive) | – | 3.94 µM (inactive) | 4.08 µM (inactive) | > 100 µM (inactive) | > 100 µM (inactive) | 80.7 µM (inactive) | 5.75 µM (inactive) | > 100 µM (inactive) | > 100 µM (inactive) | 51.8 µM (inactive) | > 100 µM (inactive) | > 100 µM (inactive) | 2.96 µM (inactive) | – | 20.7 µM (inactive) | > 100 µM (inactive)
14 | CN(C)CCN(C)C(=O)C1CCCN1C(=O)OCc1ccccc1 (configuration not stated) | > 100 µM (inactive) | > 100 µM (inactive) | > 100 | 34.7 µM (inactive) | > 100 µM (inactive) | – | > 100 µM (inactive) | > 100 µM (inactive) | > 100 µM (inactive) | 6.71 µM (inactive) | > 100 µM (inactive) | > 100 µM (inactive) | > 100 µM (inactive) | > 100 µM (inactive) | – | > 100 µM (inactive) | > 100 µM (inactive) | > 100 µM (inactive)
15 | Cc1cccc(NC2=NC(=O)C(CC(=O)Nc3ccccc3Cl)S2)c1 (configuration not stated) | > 100 µM (inactive) | – | > 100 | > 100 µM (inactive) | > 100 µM (inactive) | – | > 100 µM (inactive) | > 100 µM (inactive) | > 100 µM (inactive) | – | > 100 µM (inactive) | > 100 µM (inactive) | > 100 µM (inactive) | > 100 µM (inactive) | > 100 µM (inactive) | > 100 µM (inactive) | > 100 µM (inactive) | > 100 µM (inactive)
16 | COc1ccc(N2C(=O)C3c4[nH]c5ccccc5c4C4CC(C)CC(C)C4C3C2=O)cc1 (configuration not stated) | > 100 µM (inactive) | > 100 µM (inactive) | > 100 | > 100 µM (inactive) | > 100 µM (inactive) | – | > 100 µM (inactive) | > 100 µM (inactive) | – | > 100 µM (inactive) | > 100 µM (inactive) | > 100 µM (inactive) | – | > 100 µM (inactive) | – | > 100 µM (inactive) | > 100 µM (inactive) | > 100 µM (inactive)
17 | Cc1ccccc1NC(=O)CC(=O)NNCC(=O)Nc1nnc(-c2ccccc2)s1 | 31.9 µM (inactive) | > 100 µM (inactive) | 58.2 | 31.5 µM (inactive) | > 100 µM (inactive) | > 100 µM (inactive) | 26.5 µM (inactive) | > 100 µM (inactive) | 48.2 µM (inactive) | 65.2 µM (inactive) | > 100 µM (inactive) | 79.1 µM (inactive) | 42.7 µM (inactive) | 45 µM (inactive) | > 100 µM (inactive) | 24.7 µM (inactive) | – | 51.1 µM (inactive)
18 | Cn1cnc([N+](=O)[O-])c1Sc1ccccn1 | > 100 µM (inactive) | 76.4 µM (inactive) | – | – | > 100 µM (inactive) | > 100 µM (inactive) | > 100 µM (inactive) | > 100 µM (inactive) | > 100 µM (inactive) | 74.3 µM (inactive) | > 100 µM (inactive) | > 100 µM (inactive) | > 100 µM (inactive) | 87.1 µM (inactive) | > 100 µM (inactive) | > 100 µM (inactive) | > 100 µM (inactive) | > 100 µM (inactive)
